According to patent publication US11274332B2, “Methods of administering 3,4-diaminopyridine” (SERB SA, priority 2011, dated 2022):

Target: T1, cloned human Kv1.5 potassium channel (Homo sapiens, UniProt P22460)
T1 construct: expressed in transfected cells
Test: PatchXpress inhibition of cloned human Kv1.5 in CHO cells (Example 6)
Format: cell-based
Conditions: hKv1.5, up to 3000 μM
Description: The objective of this study was to examine the in vitro effects and determine the […] of 3,4-DAP phosphate and the metabolite N-(4-aminopyridin-3-yl) acetamide HCl on the following ion channels: cloned human Kv1.1 potassium channel (encoded by the human KCNA1 gene, expressed in HEK293 cells), cloned human Kv1.2 potassium channel (encoded by the human KCNA2 gene, expressed in HEK293 cells), cloned human Kv1.3 potassium channel (encoded by the human KCNA3 gene, expressed in CHO cells), cloned human Kv1.4 potassium channel (encoded by the human KCNA4 gene, expressed in HEK293 cells), cloned human Kv1.5 potassium channel (encoded by the human KCNA5 gene and expressed in CHO cells), responsible for IKur, ultra-rapid delayed rectifier potassium current.
Chemicals used in solution preparation were purchased from Sigma-Aldrich (St. Louis, Mo.), unless otherwise noted, and were of ACS reagent grade purity or higher. Stock solutions of each test article (100 mM, 30 mM and 1.00 mM 3,4-DAP phosphate and 100 mM N-(4-aminopyridin-3-yl)acetamide) were prepared in sterile water and stored refrigerated. […]
In preparation for a recording session, intracellular solution was loaded into the intracellular compartments of the Sealchip16. […] After establishment of a whole-cell configuration, membrane currents were recorded using dual-channel patch clamp amplifiers in the PatchXpress®. […]

T1 sequence (P22460 whole entry): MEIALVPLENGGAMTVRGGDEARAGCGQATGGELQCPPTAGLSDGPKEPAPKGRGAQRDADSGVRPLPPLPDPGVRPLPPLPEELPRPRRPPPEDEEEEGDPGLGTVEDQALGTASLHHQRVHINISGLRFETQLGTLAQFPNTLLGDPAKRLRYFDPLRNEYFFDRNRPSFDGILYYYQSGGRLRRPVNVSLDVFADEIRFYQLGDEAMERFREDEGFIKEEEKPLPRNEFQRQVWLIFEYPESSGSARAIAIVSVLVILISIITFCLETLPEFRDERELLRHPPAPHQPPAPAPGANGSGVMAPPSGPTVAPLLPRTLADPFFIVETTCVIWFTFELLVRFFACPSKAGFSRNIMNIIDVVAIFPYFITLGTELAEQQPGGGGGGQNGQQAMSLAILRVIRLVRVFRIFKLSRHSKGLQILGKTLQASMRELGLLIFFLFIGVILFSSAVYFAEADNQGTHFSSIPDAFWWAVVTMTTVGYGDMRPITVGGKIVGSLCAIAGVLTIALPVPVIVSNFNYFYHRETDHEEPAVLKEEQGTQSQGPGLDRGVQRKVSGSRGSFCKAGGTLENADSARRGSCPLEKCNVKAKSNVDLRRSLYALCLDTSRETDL

CC(=O)Nc1cnccc1N [3-N-acetyl amifampridine, N-(4-aminopyridin-3-yl)acetamide]
activity on K+ channel: inactive | activity on K+ channel (listed as N-acetyl metabolite): not active
